Assay results published in US20070179154A1, “Coumarin derivatives, process for their production and use thereof” (Takeda Pharmaceutical Company Limited, priority 2002, published 2007).

molecular target: T1, mouse abdominal macrophage microsome ACAT (Mus musculus, UniProt Q61263); assay: ACAT inhibitory activity (mouse abdominal macrophage microsome ACAT); assay type: biochemical; conditions: microsome ACAT from thioglycolate-stimulated C57BL6J mouse abdominal macrophage; 3H-oleyl-CoA, 37° C. for 20 minutes; read-out: Enzyme inhibition (IC50)
T1 construct: from tissue; host or cells: microsomes of thioglycolate-elicited peritoneal (abdominal) macrophages of C57BL6J mice, cultured 24 h with rabbit beta-VLDL
T1 sequence (Q61263 1-540): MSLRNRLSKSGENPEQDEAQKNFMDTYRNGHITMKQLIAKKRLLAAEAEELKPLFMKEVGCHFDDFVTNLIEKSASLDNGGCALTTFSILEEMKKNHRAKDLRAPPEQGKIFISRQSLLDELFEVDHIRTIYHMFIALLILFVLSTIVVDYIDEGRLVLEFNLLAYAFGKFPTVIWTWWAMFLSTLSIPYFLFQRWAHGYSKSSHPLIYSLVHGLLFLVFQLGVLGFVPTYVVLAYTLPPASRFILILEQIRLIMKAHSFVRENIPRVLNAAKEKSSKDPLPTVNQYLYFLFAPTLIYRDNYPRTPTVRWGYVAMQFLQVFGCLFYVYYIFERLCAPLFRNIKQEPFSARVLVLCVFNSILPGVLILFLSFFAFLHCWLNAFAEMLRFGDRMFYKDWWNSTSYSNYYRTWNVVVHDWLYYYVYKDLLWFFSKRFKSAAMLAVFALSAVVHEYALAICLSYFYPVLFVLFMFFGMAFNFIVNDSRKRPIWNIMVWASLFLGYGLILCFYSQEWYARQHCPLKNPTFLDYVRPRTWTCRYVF
Experimental: [Preparation of Mouse Abdominal Macrophage Microsome ACAT]
According to the method of Hakamada et al. (Experimental Medicine Suppliment vol. 14, No. 12, Circulation Research Protocol, p, 49-52, 1996), an abdominal macrophage was taken from a thioglycolate-stimulated C57BL6J mouse and cultured for 24 hours in a RPMI 1640-25 mM HEPES (pH7.0) medium containing rabbit β-very low density lipoprotein (β-VLDL, 150 μg cholesterol/ml) which had been prepared by the method of Ishii et al. (Ishii I et al., Arterioscler, Thromb, 12, 1139-1145, 1992). The abdominal macrophage was then collected by centrifugation (4° C., 1.000 rpm, 5 minutes) and sonicated. The sonicated liquid was centrifuged (4° C., 5000 rpm, 15 minutes) and then ultracentrifuged (4° C., 50, 000 rpm, 90 minutes) to prepare a microsome. The microsome thus obtained was used for measuring ACAT inhibitory activity of a test compound as mouse abdominal macrophage microsome ACAT.
[Method for Measuring ACAT Inhibitory Activity]
A mixture of a test compound, cholesterol-albumin-containing-Tris-HCL buffer (pH 7.5) and mouse abdominal macrophage microsome ACAT was pre-incubated at 37° C. for 10 minutes, and ^3H-oleyl-CoA was added to react at 37° C. for 20 minutes. A stopping solution composed of chloroform-methyl alcohol-distilled water (2:2:1 v/v) was added, and produced cholesteryl ester (CE) was extracted with shaking. The extract was subjected to silica gel thin chromatography (petroleum ether:diethyl ether:acetic acid=9:1:0.1 v/v), and the resulting ^3H-CE fraction was measured with a scintillation counter.
ACAT inhibiting rate was calculated from the proportion based on ACAT activity without a test compound, and an IC50 value was calculated as the concentration (μM) of a test compound showing ACAT inhibiting rate 50%. The results are shown in [Table 15].

| IC50 [nM] | Compound |
| --- | --- |
| 430 | Cc1cc2c(-c3cccc(CCCC(=O)O)c3)c(CC(=O)Nc3ccc(F)cc3C(F)(F)F)c(=O)oc2cc1Cl [Example 78] |
| 540 | O=C(O)/C=C/c1cccc(-c2c(CC(=O)Nc3ccc(F)cc3C(F)(F)F)c(=O)oc3cc(Cl)c(CN4CCN(c5ccccc5)CC4)cc23)c1 [Example 110, (2E)-3-(3-{7-chloro-3-(2-{[4-fluoro-2-(trifluoromethyl)phenyl]amino}-2-oxoethyl)-2-oxo-6-[(4-phenylpiperazin-1-yl)methyl]-2H-chromen-4-yl}phenyl)acrylic acid] |
| 610 | O=C(O)/C=C/c1cccc(-c2c(CC(=O)Nc3ccc(Cl)cc3C(F)(F)F)c(=O)oc3cc(Cl)c(CN4CCN(c5ccccc5)CC4)cc23)c1 [Example 111, (2E)-3-(3-{7-chloro-3-(2-{[4-chloro-2-(trifluoromethyl)phenyl]amino}-2-oxoethyl)-2-oxo-6-[(4-phenylpiperazin-1-yl)methyl]-2H-chromen-4-yl}phenyl)acrylic acid] |
| 540 | O=C(Cc1c(-c2cccc(C(=O)O)c2)c2cc(CN3CCN(c4ccccc4)CC3)c(Cl)cc2oc1=O)Nc1ccc(F)cc1C(F)(F)F [Example 112, 3-{7-chloro-3-(2-{[4-fluoro-2-(trifluoromethyl)phenyl]amino}-2-oxoethyl)-2-oxo-6-[(4-phenylpiperazin-1-yl)methyl]-2H-chromen-4-yl}benzoic acid] |
| 1220 | O=C(Cc1c(-c2cccc(C(=O)O)c2)c2cc(CN3CCN(c4ccccc4)CC3)c(Cl)cc2oc1=O)Nc1ccc(Cl)cc1C(F)(F)F [Example 113, 3-{7-chloro-3-(2-{[4-chloro-2-(trifluoromethyl)phenyl]amino}-2-oxoethyl)-2-oxo-6-[(4-phenylpiperazin-1-yl)methyl]-2H-chromen-4-yl}benzoic acid] |
| 550 | O=C(O)CCc1cccc(-c2c(CC(=O)Nc3ccc(F)cc3C(F)(F)F)c(=O)oc3cc(Cl)c(CN4CCN(c5ccccc5)CC4)cc23)c1 [Example 114] |

system: not given; assay: not given; conditions: not given

| melting point | Compound |
| --- | --- |
| 198 to 200 °C | O=C(O)CCc1cccc(-c2c(CC(=O)Nc3ccc(F)cc3C(F)(F)F)c(=O)oc3cc(Cl)c(F)cc23)c1 [Example 22, 3-[3-[7-chloro-6-fluoro-3-[2-[[4-fluoro-2-(trifluoromethyl)phenyl]amino]-2-oxoethyl]-2-oxo-2H-chromen-4-yl]phenyl]propionic acid] |
| 211 to 212 °C | O=C(O)CCc1cccc(-c2c(CC(=O)Nc3ccc(F)cc3C(F)(F)F)c(=O)oc3cc(Cl)ccc23)c1 [Example 23, 3-[3-[7-chloro-3-[2-[[4-fluoro-2-(trifluoromethyl)phenyl]amino]-2-oxoethyl]-2-oxo-2H-chromen-4-yl]phenyl]propionic acid] |
| 230 to 232 °C | O=C(O)CCc1cccc(-c2c(CC(=O)Nc3ccc(F)cc3C(F)(F)F)c(=O)oc3ccccc23)c1 [Example 24, 3-[3-[3-[2-[[4-fluoro-2-(trifluoromethyl)phenyl]amino]-2-oxoethyl]-2-oxo-2H-chromen-4-yl]phenyl]propionic acid] |
| 216 to 218 °C | Cc1cc2c(-c3cccc(/C=C/c4nnn[nH]4)c3)c(CC(=O)Nc3ccc(F)cc3C(F)(F)F)c(=O)oc2cc1Cl [Example 41, 2-(7-chloro-6-methyl-2-oxo-4-{3-[(E)-2-(1H-tetrazol-5-yl)ethenyl]phenyl}-2H-chromen-3-yl)-N-[4-fluoro-2-(trifluoromethyl)phenyl]acetamide] |
| 202 to 204 °C | COC(=O)c1ccc(-c2c(CC(=O)Nc3ccc(F)cc3C(F)(F)F)c(=O)oc3cc(Cl)c(C)cc23)cc1 [Example 45, Methyl 4-(7-chloro-3-{2-[4-fluoro-2-(trifluoromethyl)anilino]-2-oxoethyl}-6-methyl-2-oxo-2H-chromen-4-yl)benzoate] |
| 216 to 218 °C | CCOC(=O)/C=C/C=C/c1cccc(-c2c(CC(=O)Nc3ccc(F)cc3C(F)(F)F)c(=O)oc3cc(Cl)c(C)cc23)c1 [Example 51, Ethyl (2E,4E)-5-[3-(7-chloro-3-{2-[4-fluoro-2-(trifluoromethyl)anilino]-2-oxoethyl}-6-methyl-2-oxo-2H-chromen-4-yl)phenyl]-2,4-pentadienoate] |
| 153 to 155 °C | CCOC(=O)CNCc1cccc(-c2c(CC(=O)Nc3ccc(F)cc3C(F)(F)F)c(=O)oc3cc(Cl)c(C)cc23)c1 [Example 62, Ethyl ({3-[7-chloro-3-(2-{[4-fluoro-2-(trifluoromethyl)phenyl]amino}-2-oxoethyl)-6-methyl-2-oxo-2H-chromen-4-yl]benzyl}amino)acetate] |
| 106 to 108 °C | CCOC(=O)CSCc1cccc(-c2c(CC(=O)Nc3ccc(F)cc3C(F)(F)F)c(=O)oc3cc(Cl)c(C)cc23)c1 [Example 63, Ethyl ({3-[7-chloro-3-(2-{[4-fluoro-2-(trifluoromethyl)phenyl]amino}-2-oxoethyl)-6-methyl-2-oxo-2H-chromen-4-yl]benzyl}thio)acetate] |
| 230 to 231 °C | CCOC(=O)CS(=O)(=O)Cc1cccc(-c2c(CC(=O)Nc3ccc(F)cc3C(F)(F)F)c(=O)oc3cc(Cl)c(C)cc23)c1 [Example 64, Ethyl ({3-[7-chloro-3-(2-{[4-fluoro-2-(trifluoromethyl)phenyl]amino}-2-oxoethyl)-6-methyl-2-oxo-2H-chromen-4-yl]benzyl}sulfonyl)acetate] |
| 244 to 246 °C | Cc1cc2c(-c3cccc(CCc4nnn[nH]4)c3)c(CC(=O)Nc3ccc(F)cc3C(F)(F)F)c(=O)oc2cc1Cl [Example 98] |
| 285 to 287 °C | Cc1cc2c(-c3cccc(-c4noc(=O)[nH]4)c3)c(CC(=O)Nc3ccc(F)cc3C(F)(F)F)c(=O)oc2cc1Cl [Example 99, 2-{7-chloro-6-methyl-2-oxo-4-[3-(5-oxo-4,5-dihydro-1,2,4-oxadiazol-3-yl)phenyl]-2H-chromen-3-yl}-N-[4-fluoro-2-(trifluoromethyl)phenyl]acetamide] |
| 161 to 164 °C | Cc1cc2c(-c3cccc(Cc4noc(=O)[nH]4)c3)c(CC(=O)Nc3ccc(F)cc3C(F)(F)F)c(=O)oc2cc1Cl [Example 100] |
| 295 °C (dec.) | Cc1cc2c(-c3cccc(Cc4noc(=O)[nH]4)c3)c(CC(=O)Nc3ccccc3C(F)(F)F)c(=O)oc2cc1Cl [Example 101] |
| 178 to 180 °C | Cc1cc2c(-c3cccc(-c4noc(=S)[nH]4)c3)c(CC(=O)Nc3ccc(F)cc3C(F)(F)F)c(=O)oc2cc1Cl [Example 102, 2-{7-chloro-6-methyl-2-oxo-4-[3-(5-thioxo-4,5-dihydro-1,2,4-oxadiazol-3-yl)phenyl]-2H-chromen-3-yl}-N-[4-fluoro-2-(trifluoromethyl)phenyl]acetamide] |
| 269 to 271 °C (dec.) | Cc1cc2c(-c3cccc(-c4nsc(=O)[nH]4)c3)c(CC(=O)Nc3ccc(F)cc3C(F)(F)F)c(=O)oc2cc1Cl [Example 104, 2-{7-chloro-6-methyl-2-oxo-4-[3-(5-oxo-4,5-dihydro-1,2,4-thiadiazol-3-yl)phenyl]-2H-chromen-3-yl}-N-[4-fluoro-2-(trifluoromethyl)phenyl]acetamide] |
| 135 to 137 °C | COC(=O)c1cccc(-c2c(CC(=O)Nc3ccc(F)cc3C(F)(F)F)c(=O)oc3cc(Cl)c(CN4CCN(c5ccccc5)CC4)cc23)c1 [Example 108] |
| 130 to 132 °C | COC(=O)c1cccc(-c2c(CC(=O)Nc3ccc(Cl)cc3C(F)(F)F)c(=O)oc3cc(Cl)c(CN4CCN(c5ccccc5)CC4)cc23)c1 [Example 109] |
| 238 to 240 °C | O=C(O)/C=C/c1cccc(-c2c(CC(=O)Nc3ccc(F)cc3C(F)(F)F)c(=O)oc3cc(Cl)c(CN4CCN(c5ccccc5)CC4)cc23)c1 [Example 110, (2E)-3-(3-{7-chloro-3-(2-{[4-fluoro-2-(trifluoromethyl)phenyl]amino}-2-oxoethyl)-2-oxo-6-[(4-phenylpiperazin-1-yl)methyl]-2H-chromen-4-yl}phenyl)acrylic acid] |
| 239 to 241 °C | O=C(O)/C=C/c1cccc(-c2c(CC(=O)Nc3ccc(Cl)cc3C(F)(F)F)c(=O)oc3cc(Cl)c(CN4CCN(c5ccccc5)CC4)cc23)c1 [Example 111, (2E)-3-(3-{7-chloro-3-(2-{[4-chloro-2-(trifluoromethyl)phenyl]amino}-2-oxoethyl)-2-oxo-6-[(4-phenylpiperazin-1-yl)methyl]-2H-chromen-4-yl}phenyl)acrylic acid] |
| 149 to 151 °C | O=C(Cc1c(-c2cccc(C(=O)O)c2)c2cc(CN3CCN(c4ccccc4)CC3)c(Cl)cc2oc1=O)Nc1ccc(F)cc1C(F)(F)F [Example 112, 3-{7-chloro-3-(2-{[4-fluoro-2-(trifluoromethyl)phenyl]amino}-2-oxoethyl)-2-oxo-6-[(4-phenylpiperazin-1-yl)methyl]-2H-chromen-4-yl}benzoic acid] |
| 151 to 153 °C | O=C(Cc1c(-c2cccc(C(=O)O)c2)c2cc(CN3CCN(c4ccccc4)CC3)c(Cl)cc2oc1=O)Nc1ccc(Cl)cc1C(F)(F)F [Example 113, 3-{7-chloro-3-(2-{[4-chloro-2-(trifluoromethyl)phenyl]amino}-2-oxoethyl)-2-oxo-6-[(4-phenylpiperazin-1-yl)methyl]-2H-chromen-4-yl}benzoic acid] |
| 226 to 228 °C | O=C(O)CCc1cccc(-c2c(CC(=O)Nc3ccc(F)cc3C(F)(F)F)c(=O)oc3cc(Cl)c(CN4CCN(c5ccccc5)CC4)cc23)c1 [Example 114] |
| 215 to 217 °C | Cc1cc2c(-c3cccc(C(=O)NC(C)C)c3)c(CC(=O)Nc3ccc(Cl)cc3C(F)(F)F)c(=O)oc2cc1Cl [Example 121] |
| 206 to 208 °C | Cc1cc2c(-c3cccc(C(=O)NC(C)(C)C)c3)c(CC(=O)Nc3ccc(Cl)cc3C(F)(F)F)c(=O)oc2cc1Cl [Example 122] |
